Data as given in US6358885B1, “Substituted phenylheterocyclic herbicides” (Mississippi State University, priority 1992, dated 2002).

Key:
Experiment in all cases: Test F preemergence/postemergence greenhouse plant response rating 0 to 100
[1] = system: winter wheat; type: in vivo, Triticum aestivum cv. ‘Talent’; conditions: POSTEMERGENCE, 0 to 100 scale
Summary of the method: (§1)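 Pre: sandy loam, spray ~1 day after seeding. Post: 1–4 leaf plants, 60:40 sandy loam/potting mix; blackgrass treated at two growth stages. Formulated in non-phytotoxic solvent. Visual rating vs untreated controls at ~21–28 d.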

[2] = system: wild oat; type: in vivo, Avena fatua; conditions: POSTEMERGENCE, 0 to 100 scale; for Wild oat (1) plant response rating: stage (1) two to three leaves; for Wild oat (2) plant response rating: stage (2) approximately four leaves or initial tillering
Summary of the method: as §1

[3] = system: spring wheat; type: in vivo, Triticum aestivum cv. ‘ERA’; conditions: POSTEMERGENCE, 0 to 100 scale
Summary of the method: as §1

[4] = system: chickweed; type: in vivo, Stellaria media; conditions: POSTEMERGENCE, 0 to 100 scale
Summary of the method: as §1

[5] = system: blackgrass; type: in vivo, Alopecurus myosuroides; conditions: POSTEMERGENCE, 0 to 100 scale; for Blackgrass (1) plant response rating: stage (1) two to three leaves; for Blackgrass (2) plant response rating: stage (2) approximately four leaves or initial tillering
Summary of the method: as §1

[6] = system: galium; type: in vivo, Galium aparine; conditions: POSTEMERGENCE, 0 to 100 scale; for Galium (1) plant response rating: stage (1) two to three leaves; for Galium (2) plant response rating: stage (2) approximately four leaves or initial tillering
Summary of the method: as §1

[7] = system: winter barley; type: in vivo, Hordeum vulgare cv. ‘Igri’; conditions: POSTEMERGENCE, 0 to 100 scale
Summary of the method: as §1

[8] = system: speedwell; type: in vivo, Veronica persica; conditions: POSTEMERGENCE, 0 to 100 scale
Summary of the method: as §1

[9] = system: downy brome; type: in vivo, Bromus tectorum; conditions: POSTEMERGENCE, 0 to 100 scale
Summary of the method: as §1

[10] = system: wild buckwheat; type: in vivo, Polygonum convolvulus; conditions: POSTEMERGENCE, 0 to 100 scale
Summary of the method: as §1

[11] = system: lambsquarters; type: in vivo, Chenopodium album; conditions: POSTEMERGENCE, 0 to 100 scale
Summary of the method: as §1

[12] = system: wild mustard; type: in vivo, Sinapis arvensis; conditions: POSTEMERGENCE, 0 to 100 scale
Summary of the method: as §1

[13] = system: kochia; type: in vivo, Kochia scoparia; conditions: POSTEMERGENCE, 0 to 100 scale
Summary of the method: as §1

[14] = system: wild radish; type: in vivo, Raphanus raphanistrum; conditions: POSTEMERGENCE, 0 to 100 scale
Summary of the method: as §1

SMILES: Fc1cc(Cl)c(OCCCl)cc1-c1nn2c(c1Cl)CCCC2 [Compound 49]
- Wheat (Winter) plant response rating ([1]; Rate 2 g/ha): 0
- Wheat (Winter) plant response rating ([1]; Rate 4 g/ha): 10
- Wheat (Winter) plant response rating ([1]; Rate 8 g/ha): 10
- Wheat (Winter) plant response rating ([1]; Rate 16 g/ha): 10
- Wheat (Winter) plant response rating ([1]; Rate 32 g/ha): 20
- Wild oat (1) plant response rating ([2]; Rate 2 g/ha): 0
- Wild oat (2) plant response rating ([2]; Rate 2 g/ha): 0
- Wild oat (1) plant response rating ([2]; Rate 4 g/ha): 10
- Wild oat (2) plant response rating ([2]; Rate 4 g/ha): 0
- Wild oat (1) plant response rating ([2]; Rate 8 g/ha): 20
- Wild oat (2) plant response rating ([2]; Rate 8 g/ha): 0
- Wild oat (1) plant response rating ([2]; Rate 16 g/ha): 20
- Wild oat (2) plant response rating ([2]; Rate 16 g/ha): 0
- Wild oat (1) plant response rating ([2]; Rate 32 g/ha): 30
- Wild oat (2) plant response rating ([2]; Rate 32 g/ha): 20
- Wheat (Spring) plant response rating ([3]; Rate 2 g/ha): 0
- Wheat (Spring) plant response rating ([3]; Rate 4 g/ha): 0
- Wheat (Spring) plant response rating ([3]; Rate 8 g/ha): 0
- Wheat (Spring) plant response rating ([3]; Rate 16 g/ha): 10
- Wheat (Spring) plant response rating ([3]; Rate 32 g/ha): 20
- Chickweed plant response rating ([4]; Rate 2 g/ha): 0
- Chickweed plant response rating ([4]; Rate 4 g/ha): 0
- Chickweed plant response rating ([4]; Rate 8 g/ha): 20
- Chickweed plant response rating ([4]; Rate 16 g/ha): 50
- Chickweed plant response rating ([4]; Rate 32 g/ha): 60
- Blackgrass (1) plant response rating ([5]; Rate 2 g/ha): 0
- Blackgrass (2) plant response rating ([5]; Rate 2 g/ha): 0
- Blackgrass (1) plant response rating ([5]; Rate 4 g/ha): 0
- Blackgrass (2) plant response rating ([5]; Rate 4 g/ha): 0
- Blackgrass (1) plant response rating ([5]; Rate 8 g/ha): 0
- Blackgrass (2) plant response rating ([5]; Rate 8 g/ha): 0
- Blackgrass (1) plant response rating ([5]; Rate 16 g/ha): 0
- Blackgrass (2) plant response rating ([5]; Rate 16 g/ha): 0
- Blackgrass (1) plant response rating ([5]; Rate 32 g/ha): 0
- Blackgrass (2) plant response rating ([5]; Rate 32 g/ha): 10
- Galium (1) plant response rating ([6]; Rate 2 g/ha): 0
- Galium (2) plant response rating ([6]; Rate 2 g/ha): 0
- Galium (1) plant response rating ([6]; Rate 4 g/ha): 30
- Galium (2) plant response rating ([6]; Rate 4 g/ha): 30
- Galium (1) plant response rating ([6]; Rate 8 g/ha): 35
- Galium (2) plant response rating ([6]; Rate 8 g/ha): 30
- Galium (1) plant response rating ([6]; Rate 16 g/ha): 40
- Galium (2) plant response rating ([6]; Rate 16 g/ha): 40
- Galium (1) plant response rating ([6]; Rate 32 g/ha): 40
- Galium (2) plant response rating ([6]; Rate 32 g/ha): 40
- Winter Barley plant response rating ([7]; Rate 2 g/ha): 0
- Winter Barley plant response rating ([7]; Rate 4 g/ha): 0
- Winter Barley plant response rating ([7]; Rate 8 g/ha): 10
- Winter Barley plant response rating ([7]; Rate 16 g/ha): 10
- Winter Barley plant response rating ([7]; Rate 32 g/ha): 20
- Persn Speedwell plant response rating ([8]; Rate 2 g/ha): 50
- Persn Speedwell plant response rating ([8]; Rate 4 g/ha): 50
- Persn Speedwell plant response rating ([8]; Rate 8 g/ha): 60
- Persn Speedwell plant response rating ([8]; Rate 16 g/ha): 100
- Persn Speedwell plant response rating ([8]; Rate 32 g/ha): 100
- Downy brome plant response rating ([9]; Rate 2 g/ha): 0
- Downy brome plant response rating ([9]; Rate 4 g/ha): 0
- Downy brome plant response rating ([9]; Rate 8 g/ha): 0
- Downy brome plant response rating ([9]; Rate 16 g/ha): 10
- Downy brome plant response rating ([9]; Rate 32 g/ha): 10
- Wild buckwheat plant response rating ([10]; Rate 2 g/ha): 100
- Wild buckwheat plant response rating ([10]; Rate 4 g/ha): 100
- Wild buckwheat plant response rating ([10]; Rate 8 g/ha): 100
- Wild buckwheat plant response rating ([10]; Rate 16 g/ha): 100
- Wild buckwheat plant response rating ([10]; Rate 32 g/ha): 100
- Lambsquarters plant response rating ([11]; Rate 4 g/ha): 50
- Lambsquarters plant response rating ([11]; Rate 16 g/ha): 50
- Lambsquarters plant response rating ([11]; Rate 32 g/ha): 70
- Wild mustard plant response rating ([12]; Rate 2 g/ha): 90
- Wild mustard plant response rating ([12]; Rate 4 g/ha): 100
- Wild mustard plant response rating ([12]; Rate 8 g/ha): 100
- Wild mustard plant response rating ([12]; Rate 32 g/ha): 100
- Kochia plant response rating ([13]; Rate 2 g/ha): 20
- Kochia plant response rating ([13]; Rate 4 g/ha): 60
- Kochia plant response rating ([13]; Rate 8 g/ha): 80
- Kochia plant response rating ([13]; Rate 16 g/ha): 100
- Kochia plant response rating ([13]; Rate 32 g/ha): 100
- Wild radish plant response rating ([14]; Rate 2 g/ha): 0
- Wild radish plant response rating ([14]; Rate 4 g/ha): 0
- Wild radish plant response rating ([14]; Rate 8 g/ha): 10
- Wild radish plant response rating ([14]; Rate 16 g/ha): 100
